Read-outs that look alike come from different tables or passages of the source.
Tests used:
[1] = Floor pen phase: live weight, feed conversion and total mortality during 7-week grow-out; type: in vivo, Gallus domesticus (chicken)
Description: The timeline was as follows. On Day 0, birds were weighed by pen. The birds in Groups 1 and 2 were vaccinated as described in Table 9, with 1300 birds per vaccine regime, divided between 2 pens, one in each half of the house. The birds in Group 3 were started on Salinomycin, 60 g/ton, divided as described for Groups 1 and 2. The pens were stocked. Extra hatchmates were retained in wire cages as unvaccinated chicks.
On Day 21, the feed from starter to grower was changed for all birds. Salinomycin was continued in Group 3.
On Day 42, all groups were changed to unmedicated finisher feed and the feed back was weighed.
On Day 49, all birds and feed were weighed and the trial was terminated.
Vaccination/Medication. Three treatments of birds identified as Groups 1-3 in Table 9, were replicated in half houses, three pens per house, 650 birds per pen, for a total of 1300 birds per treatment. Birds in […] were vaccinated as described in Table 9. An additional treatment group (4) was maintained separately in clean cages as unvaccinated, untreated controls, for use in the challenge test only.
Treatment Groups 1, 2, and 4 were given non-medicated feed. Treatment Group 3 was given Salinomycin (60 g/ton) beginning on Day 1 through Day 42. The birds in Group 3 to be challenged were given non-medicated feed after the move to the challenge cages. Starter feed was given until 21 days, grower until 42 days and finisher until 49 days. The feed issued was recorded, and any remaining unconsumed feed was weighed back at the time of feed changes and at termination.
(§1) Observations. Birds were weighed by pen at 0 and 28 days and by pen and sex at 49 days. Dead birds were collected twice daily and necropsy performed to determine cause of death.
(§2) Criteria for Measurement. The primary variables for the floor pen phase were live weights at 28 and 49 days and feed conversion at 49 days. For the challenge phase, primary variables were weight gain six days after challenge, and lesion scores of the upper, mid and cecal gut sections, also at six days after challenge.

Clostridium sordelli = type: in vivo, Gallus domesticus (chicken); details: necrotic enteritis mortality
Protocol: as §1
Concurrent Medications and Management of Adverse Events. The Coccivac vaccinated birds became sick 14 days into the trial. […] The responsible agent was identified as Clostridium sordelli. All birds in the trial were administered Penicillin G to decrease contamination, and the affects thereof, between pens and to eliminate any difference in treatments among the groups that could skew the coccidiosis results.
It is important to note that the Coccivac vaccinated birds became infected with Clostridium sordelli. Clostridial disease has been linked to infection with coccidiosis in the field. Even though the infection did spread to the other treatments, the Coccivac vaccinated birds were the most affected showing 11.77% mortality.

[2] = tested on: E. acervulina, E. mitis, E. tenella, E. maxima; experiment: Challenge phase: polyvalent oral challenge with virulent Eimeria, lesion scores and weight gain six days after challenge; type: in vivo, Gallus domesticus (chicken)
Description: Six days following challenge, the vaccinates and controls from each of the Groups in Table 4 were sacrificed, weighed, and the intestines and ceca were examined and scored for lesions. Scoring was in accordance with the Johnson and Reid cocciodial scoring system, as described in Experimental Parisitology, Vol. 28, p 30-36, 1970, the disclosure of which is incorporated by reference in its entirety, as shown in Table 5.
On Day 28, the birds to be challenged were moved to wire cages. Salinomycin was discontinued in Group 3 birds to be challenged. All birds and feed we weighed. Fresh fecal samples were collected from the litter from each group in the large pens, 20 samples per pen. Oocysts by quantified by species.
On Day 29, birds in the cages were challenged using the number of oocysts described in Table 7.
On Day 35, the challenge birds were terminated, the lesions were scored, and weight gains were taken.
Challenge. At Day 28, 3 reps of 10 birds from each pen (total of 60 per treatment) were weighed and moved to the battery cages for challenge with field strains of Eimeria (corresponding to the species used in the vaccine). All birds were given non-medicated feed in the cages. On Day 29, birds of Groups 1-4 were challenged and then terminated on Day 35. Lesion scores and weights were recorded.
as §2

Salmonella = experiment: Killing of Salmonella by oocyst processing agents
Mycoplasma = experiment: Killing of Mycoplasma by oocyst processing agent

## CC[C@@H](C(=O)[C@@H](C)[C@@H](O)[C@H](C)[C@@H]1O[C@@H]([C@@H](CC)C(=O)O)CC[C@@H]1C)[C@H]1O[C@]2(C=C[C@@H](O)[C@]3(CC[C@@](C)([C@H]4CC[C@](O)(CC)[C@H](C)O4)O3)O2)[C@H](C)C[C@@H]1C [SALINOMYCIN, Salinomycin]
[1]; 28 Day Summary
  % All Mortality: 3.76%
  Feed Conversion: 1.383
[1]; 28 Day Summary, commercial birds, floor pens
  Avg Live Wt: 1.45
[1]; 49 Day Summary
  % Mortality Total: 5.38%
  Avg Live Female Wt: 2.63
  Avg Live Male Wt: 3.17
  Avg Total Live Wt: 2.90
  Feed Conversion: 1.86
Clostridium sordelli; 28 Day Summary
  % Mortality NE: 0.46%
Clostridium sordelli; 49 Day Summary
  % Mortality NE: 0.53%
[2]; Day 28, before challenge, 60 birds challenged per treatment
  Initial Wt.: 1435.47ab
[2]; Day 35, six days after challenge
  Final Wt.: 1488.97b
[2]; after challenge
  % Mortality Due to Coccidiosis: 0%
[2]; ceca, six days after challenge, Johnson and Reid score 0 to +4
  Ceca Lesion Score: 3.25a
[2]; mid gut, six days after challenge, Johnson and Reid score 0 to +4
  Middle Lesion Score: 2.90b
[2]; six days after challenge
  6 Day Wt. Gain: 53.50 days
  ATLS (average total lesion score): 2.88a
  TLS (total lesion score): 8.65a
[2]; upper intestine, six days after challenge, Johnson and Reid score 0 to +4
  Upper Lesion Score: 2.50a

## [K+].[K+].[O]=[Cr](=[O])([O-])[O][Cr](=[O])(=[O])[O-] [potassium dichromate]
Salmonella
  killing of Salmonella: effectively killed

## OCl [sodium hypochlorite]
Salmonella
  killing of Salmonella: effectively killed
Mycoplasma
  killing of Mycoplasma: effectively killed
